From patent US11753377B2, “Crystal form of 2-methyl-2-propanol and amino-substituted aryl compound” (ZHUHAI UNITED LABORATORIES CO., LTD., priority 2020, dated 2023)
Where two headings read alike, the source gives them in different places.

Tests used:
[1] = target: T1, CYP3A4 (Homo sapiens, UniProt P08684); assay: Inhibition of human liver microsomal cytochrome P450 CYP3A4; assay type: in vitro ADME; conditions: pooled human liver microsomes, two probe substrates, NADPH
T1 construct: pooled human liver microsomes were selected as a CYP450 enzyme source; from tissue; host or cells: pooled human liver microsomes
From the text: (§1) Experimental objective: To study the inhibitory effect of compounds on human liver microsomal cytochrome P450. Experimental processes: In the study on inhibition of the compounds on the human liver microsomal cytochrome P450 (CYP1A2, CYP2C9, CYP2C19, CYP2D6 and CYP3A4), pooled human liver microsomes were selected as a CYP450 enzyme source.

[2] = target: T2, CYP2C19 (Homo sapiens, UniProt P33261); assay: Inhibition of human liver microsomal cytochrome P450 CYP2C19; assay type: in vitro ADME; conditions: pooled human liver microsomes, probe substrate, NADPH
T2 construct: pooled human liver microsomes were selected as a CYP450 enzyme source; from tissue; host or cells: pooled human liver microsomes
From the text: as §1

[3] = target: T3, CYP2C9 (Homo sapiens, UniProt P11712); assay: Inhibition of human liver microsomal cytochrome P450 CYP2C9; assay type: in vitro ADME; conditions: pooled human liver microsomes, probe substrate, NADPH
T3 construct: pooled human liver microsomes were selected as a CYP450 enzyme source; from tissue; host or cells: pooled human liver microsomes
From the text: as §1

[4] = Pharmacokinetics in Beagle dogs, single intravenous injection; assay type: in vivo; conditions: male, dog, plasma, 1 mg/kg single intravenous injection
Protocol: Experimental objective: To study pharmacokinetics of the compound in Beagle dogs
Experimental material: Beagle dogs (male, 8-11 kg, greater than or equal to 6 months, Marshall)
(§2) Pharmacokinetic characteristics of the compound were tested by intravenous injection in rodents according to the standard protocol. In the experiment, the candidate compound was prepared as a clear solution, and was administrating to Beagle dogs at 1 mg/kg by single intravenous injection. A vehicle for intravenous injection was a 10% hydroxypropyl β-cyclodextrin aqueous solution. Whole blood samples were collected at 0.033, 0.083, 0.25, 0.5, 1, 2, 4, 8, 12, and 24 hours, respectively, centrifuged at 3000 r for 10 min, and the supernatant was separated to obtain plasma samples. 20 μL of plasma samples were mixed with 400 μL of acetonitrile solution containing internal standard to precipitate protein, and the mixture was centrifuged, then 2 μL of the supernatant was injected. Plasma concentrations were quantitatively analyzed by LC-MS/MS analysis method, and pharmacokinetic parameters, such as clearance rate, half-life, and area under the concentration-time curve, were calculated.

[5] = target: T4, CYP2D6 (Homo sapiens, UniProt P10635); assay: Inhibition of human liver microsomal cytochrome P450 CYP2D6; assay type: in vitro ADME; conditions: pooled human liver microsomes, probe substrate, NADPH
T4 construct: pooled human liver microsomes were selected as a CYP450 enzyme source; from tissue; host or cells: pooled human liver microsomes
From the text: as §1

[6] = Pharmacokinetics in cynomolgus monkeys, single intravenous injection; assay type: in vivo; conditions: male, cynomolgus monkey, plasma, 1 mg/kg single intravenous injection
Protocol: Experimental objective: To study pharmacokinetics of the compound in cynomolgus monkeys
Experimental material: Cynomolgus monkeys (male, 2.5-4 kg, greater than or equal to 2 years, Hainan Jingang)
as §2, with “monkeys” for “rodents”, “cynomolgus monkeys” for “Beagle dogs”, “hours,” for “hours, respectively,”

[7] = Corneal to plasma drug concentration after eye drop administration in rats; assay type: in vivo; conditions: male, rat, topical, SD rats
Protocol: Experimental objective: To study the ratio of corneal to plasma drug concentration after eye drop administration in rats
Experimental material: Male SD rats, 200-300 g, 7-9 weeks old, Shanghai Lingchang
Experimental processes: The candidate compound was prepared as a clear solution, and administrating to SD rats by eye drop administration. The vehicle for eye drops was 10% hydroxypropyl β-cyclodextrin aqueous solution, and the drug concentration in the eye drops was 5 mg/mL. Corneal and whole blood samples were collected at 1 and 4 hours, respectively. Corneal was homogenized using 15 mM phosphate buffer (PBS): MeOH (2:1, v:v) buffer, then the whole blood samples were centrifuged at 3000 r for 10 min, and the supernatant plasma samples were separated. 20 μL of the plasma samples and homogenate samples were respectively mixed with 400 μL of acetonitrile solution containing internal standard to precipitate protein, and the mixture was centrifuged, then 2 μL of the supernatant was injected. The plasma concentrations were quantitatively analyzed by LC-MS/MS analysis method; the drug concentrations in the cornea and plasma were measured respectively according to different time points, and the ratio of corneal/plasma was calculated.

[8] = tested on: xerophthalmia in mice; assay: In vivo efficacy: scopolamine-induced xerophthalmia in mice (tear test, corneal fluorescence staining score); design: species or system C57BL/6J mice; conditions: scopolamine model, 0.5% eye drops 3 μL/eye 4 times/day
From the text: Subcutaneous injection of scopolamine may induce the xerophthalmia in mice. Decreased tear secretion and inflammatory infiltration can be observed by tear tests and corneal fluorescence staining scores. Furthermore, it is possible to predict whether the model can reach the expected severity at the beginning of the modeling.
Experimental Design: • Twenty animals were selected from 25 female C57BL/6J mice and randomized into 4 groups by body weight via Provantis or Excel, […], and the grouping might also refer to the results of the tear test and the corneal fluorescence staining score of each animal prior to the experiment. • The mice were injected subcutaneously with scopolamine hydrobromide (3±0.5 h) for 4 times daily at 0.1 mL/animal/time on Day 1 to Day 12 of the experiment to establish xerophthalmia models in the mice. • On Day 1 to Day 13 of the experiment, animals were administrated by binocular eye drops for 4 times daily (3±0.5 h) at 3 μL/eye (on Day 13, animals in Group 1 were not administrated). […]
Tear tests and corneal fluorescence staining scores were performed on all experimental animals on Day 7 and Day 12 prior to modeling.
Criteria for corneal fluorescence staining scores: The cornea of an animal was divided into 5 regions, respectively being upper, lower, nasal, temporal and central regions, and each region was 0-3 points, and each region was scored. […]

[9] = target: T5, CYP1A2 (Homo sapiens, UniProt P05177); assay: Inhibition of human liver microsomal cytochrome P450 CYP1A2; assay type: in vitro ADME; conditions: pooled human liver microsomes, probe substrate, NADPH
T5 construct: pooled human liver microsomes were selected as a CYP450 enzyme source; from tissue; host or cells: pooled human liver microsomes
T5 sequence (P05177 1-516): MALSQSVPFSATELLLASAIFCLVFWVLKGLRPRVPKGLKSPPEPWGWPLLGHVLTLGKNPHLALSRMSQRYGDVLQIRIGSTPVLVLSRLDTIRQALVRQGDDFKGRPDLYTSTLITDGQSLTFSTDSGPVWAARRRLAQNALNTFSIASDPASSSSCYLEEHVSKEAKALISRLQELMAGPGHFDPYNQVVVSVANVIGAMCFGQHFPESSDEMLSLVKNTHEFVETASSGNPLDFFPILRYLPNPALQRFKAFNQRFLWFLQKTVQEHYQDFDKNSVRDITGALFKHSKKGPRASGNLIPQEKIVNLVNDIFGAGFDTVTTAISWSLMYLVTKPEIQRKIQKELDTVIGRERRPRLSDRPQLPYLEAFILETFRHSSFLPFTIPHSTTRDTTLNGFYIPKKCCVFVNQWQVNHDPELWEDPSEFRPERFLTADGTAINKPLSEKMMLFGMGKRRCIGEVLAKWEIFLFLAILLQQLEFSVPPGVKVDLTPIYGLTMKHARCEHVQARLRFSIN
From the text: as §1

[10] = In vitro aldehyde capture capacity experiment (complexation with nonanal, HPLC at 254 nm)
From the text: Experimental Embodiment 1: In Vitro Aldehyde Capture Capacity Experiment
1. Experiment Objectives and Processes
Objectives: Xerophthalmia is caused by inflammation inside the eyes, wherein the inflammation may produce aldehydes in the body that will accelerate the inflammation symptoms and worsen the xerophthalmia if not eliminated in time. In the experiment, a relatively good compound was selected according to the complexing capacity of the drug and aldehydes in vivo by simulating the in vivo environment.
Processes: Sulfobutyl-B-cyclodextrin (310 mg) was dissolved in a phosphate buffer (1.25 mL) to prepare a solution.
Nonanal (5.0 mg, 32 μmol, 1.0 eq) and triolein (300 mg) were added to a reaction flask at room temperature, after the prepared solution described above was added thereto, linoleic acid (300 mg) was added thereto, and finally a dimethyl sulfoxide (0.15 mL) solution containing the compound (32 μmol, 1.0 eq) of the present disclosure was added thereto; the reaction solution was reacted at 20-23° C.
The reaction solution was reacted under stirring for 10 min, 100 min, 200 min, and 300 min respectively, and sampled for high performance liquid chromatography after the solution was stratified after standing for 2 min.
Sampling method: 25 μL of an upper emulsified layer and 50 μL of a lower aqueous layer were sampled by a pipette, and samples were diluted with 1 mL of methanol.
Therefore, the percentage contents of complexes at 254 nm under high performance liquid chromatography were compared to observe the ability of compounds to capture and complex aldehydes, as shown in FIG. 4 and Table 6:
The HPLC analysis method is detailed in Table 7, which is XBRIGE 2.5 μm, 3.0*100 mm 5-80CD_XBEH_12 min_0.8.lcm
After 300 min of reaction, retention times of 6.689 min, 6.787 min, 6.966 min, and 7.102 min were absorption peaks of products complexed with monomolecular aldehyde; retention times of 8.905 min, 9.010 min, and 9.075 min were absorption peaks of products complexed with bimolecular aldehyde.

[11] = read-out: Area under the concentration-time curve AUC
[12] = read-out: Half-life T1/2 (converted)

T2 sequence (P33261 whole entry): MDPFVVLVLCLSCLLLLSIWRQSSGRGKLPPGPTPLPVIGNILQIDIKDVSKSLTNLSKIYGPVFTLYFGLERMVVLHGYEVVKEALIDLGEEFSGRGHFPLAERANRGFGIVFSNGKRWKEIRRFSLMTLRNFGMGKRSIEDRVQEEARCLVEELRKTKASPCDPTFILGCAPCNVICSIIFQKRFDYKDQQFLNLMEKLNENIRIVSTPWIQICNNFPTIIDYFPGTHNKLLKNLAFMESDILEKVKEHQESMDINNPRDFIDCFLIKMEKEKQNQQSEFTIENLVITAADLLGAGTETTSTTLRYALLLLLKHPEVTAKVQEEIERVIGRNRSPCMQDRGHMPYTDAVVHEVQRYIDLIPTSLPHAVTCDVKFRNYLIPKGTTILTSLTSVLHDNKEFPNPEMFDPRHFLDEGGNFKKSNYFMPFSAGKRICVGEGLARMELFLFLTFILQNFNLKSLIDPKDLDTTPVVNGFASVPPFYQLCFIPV
T3 sequence (P11712 whole entry): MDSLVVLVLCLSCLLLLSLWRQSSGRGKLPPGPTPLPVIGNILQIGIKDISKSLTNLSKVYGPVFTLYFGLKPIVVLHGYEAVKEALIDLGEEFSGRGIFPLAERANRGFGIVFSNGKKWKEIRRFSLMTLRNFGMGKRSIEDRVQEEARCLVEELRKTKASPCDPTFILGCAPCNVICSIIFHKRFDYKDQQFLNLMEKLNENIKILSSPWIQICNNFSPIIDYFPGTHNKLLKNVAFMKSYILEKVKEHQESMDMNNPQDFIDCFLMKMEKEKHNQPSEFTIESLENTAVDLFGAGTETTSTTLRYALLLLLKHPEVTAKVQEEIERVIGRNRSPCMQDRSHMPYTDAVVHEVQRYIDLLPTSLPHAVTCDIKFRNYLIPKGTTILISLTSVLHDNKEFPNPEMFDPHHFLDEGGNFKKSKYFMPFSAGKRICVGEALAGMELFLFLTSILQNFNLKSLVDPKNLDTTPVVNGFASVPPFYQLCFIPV
T4 sequence (P10635 whole entry): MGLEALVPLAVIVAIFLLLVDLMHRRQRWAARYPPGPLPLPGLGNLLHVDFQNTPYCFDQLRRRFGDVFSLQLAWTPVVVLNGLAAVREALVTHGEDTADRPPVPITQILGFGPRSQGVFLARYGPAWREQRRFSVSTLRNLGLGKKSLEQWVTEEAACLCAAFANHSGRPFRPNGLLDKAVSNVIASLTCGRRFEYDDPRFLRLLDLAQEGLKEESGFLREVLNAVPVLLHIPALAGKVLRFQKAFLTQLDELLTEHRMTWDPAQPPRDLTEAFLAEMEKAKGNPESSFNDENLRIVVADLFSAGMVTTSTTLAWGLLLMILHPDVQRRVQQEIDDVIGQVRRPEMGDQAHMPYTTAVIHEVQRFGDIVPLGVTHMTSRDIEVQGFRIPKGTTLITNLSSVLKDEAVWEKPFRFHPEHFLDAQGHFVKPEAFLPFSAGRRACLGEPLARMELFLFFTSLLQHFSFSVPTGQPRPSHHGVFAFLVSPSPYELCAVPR
T1 sequence (P08684 whole entry): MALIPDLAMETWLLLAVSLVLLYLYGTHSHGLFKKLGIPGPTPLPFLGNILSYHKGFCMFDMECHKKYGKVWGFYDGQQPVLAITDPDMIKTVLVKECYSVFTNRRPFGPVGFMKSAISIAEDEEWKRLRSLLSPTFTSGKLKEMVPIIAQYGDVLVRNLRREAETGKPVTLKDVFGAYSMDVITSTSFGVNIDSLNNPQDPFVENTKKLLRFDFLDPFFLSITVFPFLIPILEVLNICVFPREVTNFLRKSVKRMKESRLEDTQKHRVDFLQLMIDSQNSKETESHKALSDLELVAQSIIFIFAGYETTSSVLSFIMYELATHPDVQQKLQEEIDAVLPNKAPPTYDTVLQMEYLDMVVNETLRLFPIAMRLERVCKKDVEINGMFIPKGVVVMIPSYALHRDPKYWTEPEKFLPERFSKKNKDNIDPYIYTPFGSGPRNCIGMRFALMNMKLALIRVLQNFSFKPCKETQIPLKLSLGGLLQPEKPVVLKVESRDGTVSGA

- IC50 [1]: > 50 µM
- IC50 [2]: > 50 µM
- IC50 [3]: > 50 µM
- AUC [4, 11]: 4.67 µM·h
- clearance ([4]; read-out: Clearance rate): 11.3 mL/min/kg
- half-life [4, 12]: 2.94 h
- IC50 [5]: > 50 µM
- AUC [6, 11]: 13 µM·h
- clearance ([6]; read-out: Clearance rate): 4.6 mL/min/kg
- half-life [6, 12]: 3.91 h
- concentration at 1 h ([7]; cornea, eye drops 5 mg/mL, 1 h, read-out: Corneal concentration): 2450 nM
- concentration at 4 h ([7]; cornea, eye drops 5 mg/mL, 4 h, read-out: Corneal concentration): 330 nM
- Kp ([7]; cornea/plasma, 5 mg/mL, eye drop administration, read-out: Ratio of cornea/plasma): > 10
- Kp at 1 h ([7]; cornea/plasma, eye drops 5 mg/mL, 1 h, read-out: Corneal concentration/plasma concentration C/P ratio): 11.8
- Kp at 4 h ([7]; cornea/plasma, eye drops 5 mg/mL, 4 h, read-out: Corneal concentration/plasma concentration C/P ratio): 12.4
- concentration at 1 h ([7]; plasma, eye drops 5 mg/mL, 1 h, read-out: Plasma concentration): 172 nM
- concentration at 4 h ([7]; plasma, eye drops 5 mg/mL, 4 h, read-out: Plasma concentration): 24.4 nM
- IC50 [9]: > 50 µM
SMILES: CC(C)(O)c1cc(F)c(-c2cnc(C(C)(C)O)c(N)c2)cc1N [Compound represented by formula (I)]
- Tear secretion ([8]; FIG. 5): improve
- Corneal inflammation (corneal fluorescence staining) ([8]; FIG. 6): improve
- Ability and speed of complexing aldehydes [10]: very significant
- Percentage content of complexes at 254 nm ([10]; Time 10 min): 6.634%
- Percentage content of complexes at 254 nm ([10]; Time 100 min): 20.013%
- Percentage content of complexes at 254 nm ([10]; Time 200 min): 29.424%
- Percentage content of complexes at 254 nm ([10]; Time 300 min): 36.039%
- Area under the curve AUC ([10]; percentage content of complexes at 254 nm versus time, 10-300 min): 6944 min.conversion
- Slope ([10]; slope of linear equation, percentage content of complexes at 254 nm versus time 10-300 min, nonanal 1.0 eq, 20-23° C.): 0.1002
